Laboratory results as given in US9873920B2, “Method for evaluating side-effect onset risk in anticancer drug treatment, including detecting MUC4 gene polymorphism” (SAITAMA MEDICAL UNIVERSITY, priority 2013, dated 2018).
Like-named read-outs stand apart in the source and are kept apart here.

Key:
[1] = human, in vivo
Excerpt: It should be noted, of course, that death due to the side effect of drugs is a serious problem also in countries other than Japan, apart from its frequency.

[2] = cited from earlier work
[3] = cited from earlier work; remark: listed apart in the source

| Compound | times higher frequency of diffuse alveolar damage in Japanese [1] | frequency of diffuse alveolar damage ([2]; in Japanese) [%] | frequency of diffuse alveolar damage ([2]; surveys on Asians) [%] | frequency of development of ILD in Chinese relative to Japanese ([3]; Chinese versus Japanese) | frequency of development of ILD in Westerners relative to the frequency in Japanese ([3]; Westerners versus Japanese) | frequency of development of interstitial lung disease (ILD) ([3]; in Japanese) |
| --- | --- | --- | --- | --- | --- | --- |
| C#Cc1cccc(Nc2ncnc3cc(OCCOC)c(OCCOC)cc23)c1 [erlotinib] | not less than 10 times | 2.7 | 0.2 | not more than the frequency of development in Japanese | not more than 1/10 | about 4% |
| COc1cc2ncnc(Nc3ccc(F)c(Cl)c3)c2cc1OCCCN1CCOCC1 [gefitinib] | not less than 10 times |  |  |  |  |  |
